The values below come from patent US4950667A, “Pyridinyl acetamide compounds useful in treating ulcers” (Hamari Chemicals, Ltd., priority 1988, dated 1990).

Molecules are shown by their SMILES. Counter-ions that a name gives are not always drawn.

The subject of data set [1] is water-immersion stress-induced gastric ulcer (Slc:SD rats). The data set can be described thus: Water-immersion stress ulceration method. The class given is in vivo, rat (male Slc:SD). Conditions: for Inhibition rate: vs non-treated control. The protocol:
The stomachs were incised along the greater curvature, and the ulcers thus induced were measured for length under the stereoscopic microscope (magnification,×10), whereby the total sum of the lengths was taken as an ulcer index (U.I., in mm). The test substance was given orally to rats in the form of a 4% gum arabic suspension 30 minutes before stress loading.

The next data set is described as follows: Acute toxicity. Conditions: mouse, in vivo; male ddY mice, single oral dose, observed for 7 days. From the text:
A group of five male ddY mice (4-weeks aged) was used for testing.
The compound of Example 1 was suspended in 4% gum arabic solution to prepare a test pharmaceutical, which was given orally to each test animals once.

Where [2] appears, read: 10 mg/kg, oral, 30 minutes before stress loading, 7 hours stress.
Setting [3] is: 30 mg/kg, oral, 30 minutes before stress loading, 7 hours stress.

In the case of `O=C(CNc1ccncc1)Nc1ccccc1Nc1ccccc1` [Example 1, N-[2-(phenylamino),phenyl]-2-[(4-pyridinyl)-amino]actetamide hydrochloride], the “ulcer index (U.I.), Mean ± S.E.” value in data set [1] (setting [2]) is recorded as 13.0 ± 4.47 mm; in data set [1] (setting [3]), 3.8 ± 1.66 mm; in data set [1] (100 mg/kg, oral, 30 minutes before stress loading, 7 hours stress), 1.5 ± 1.31 mm. For the same compound, the Inhibition rate in data set [1] (setting [2]) is listed as 2.8%; in data set [1] (30 mg/kg, oral, 30 minutes before stress loading, 7 hours stress, *p < 0.05), 71.3%; in data set [1] (100 mg/kg, oral, 30 minutes before stress loading, 7 hours stress, **p < 0.01), 88.8%. Further, the LD50 at 168 h in “Acute toxicity” is no less than 2000 mg/kg.
Consider `CN/C(=N/CCSCc1nc[nH]c1C)NC#N` [Cimetidine, reference compound], for which the Inhibition rate in data set [1] (30 mg/kg, control reference (Cimetidine), no significance mark) is recorded as 61.4%. Further, in data set [1] (setting [3]), the “ulcer index (U.I.), Mean ± S.E.” value was determined as 5.2 ± 3.40 mm.

As usually defined, the LD50 is the dose at which mortality reaches 50%. A higher LD50 goes with a less toxic substance.
